Data on 18 compounds can be found in patent US8993604B2, “Treatment and prevention of dengue virus infections” (Siga Technologies, Inc., priority 2009, dated 2015).

The first data set deals with Dengue-2 (Strain New Guinea C). Briefly: Viral yield assay in Vero cells. It counts as cell-based. The note with it: Dengue virus, Vero, 48 h, read-out: Activity (anti-dengue 2 viral activity, EC50 class). In short, it runs like this: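 Yield reduction, Vero; MOI 0.1; compound vs DMSO; 37° C; harvest 48 h p.i.; titer on Vero; EC50 fitted. Other serotypes run the same way.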
Regarding `Cc1ccc(-c2nc3ccccc3s2)cc1NC(=O)c1ccc2c(c1)OCO2` [Compound 121, Benzo[1,3]dioxole-5-carboxylic acid (5-benzothiazol-2-yl-2-methyl-phenyl)-amide], the EC50 (in general, the concentration that produces a half-maximal response) is above 25 µM.

Regarding `Cc1c(NC(=O)c2cc(-n3cnnc3)ccc2Cl)cccc1-c1nc2ccccc2s1` [Compound 125, N-(3-Benzothiazol-2-yl-2-methyl-phenyl)-2-chloro-5-[1,2,4]triazol-4-yl-benzamide], the concentration giving a half-maximal response (EC50) is above 25 µM.

Consider `Cc1ccc2nc(-c3ccc(NC(=O)c4ccccc4C(=O)O)cc3)sc2c1` [Compound 126, N-[4-(6-Methyl-benzothiazol-2-yl)-phenyl]-phthalamic acid], for which the EC50 was above 25 µM.

The same data set, now with this note: Dengue virus; Vero cells, MOI 0.1, harvested 48 hours post infection; read-out: Activity (anti-dengue 2 viral activity, EC50 class).
Regarding `COc1ccc(C(=O)Nc2ccc(-c3nc4ccc(C)cc4s3)cc2)c(OC)c1` [Compound 3, 2,4-Dimethoxy-N-[4-(6-methyl-benzothiazol-2-yl)-phenyl]-benzamide], the EC50 is below 1 µM.

Consider `O=C(Nc1ccccc1-c1nc2ccccc2s1)c1cccc(OCc2ccccc2)c1` [Compound 111, N-(2-Benzothiazol-2-yl-phenyl)-3-benzyloxy-benzamide], for which the 50% effective concentration (EC50) is above 25 µM.

For the compound `COc1ccccc1C(=O)Nc1ccccc1-c1nc2ccccc2s1` [Compound 112, N-(2-Benzothiazol-2-yl-phenyl)-2-methoxy-benzamide], the EC50 was above 25 µM.

In the case of `COc1ccc(C(=O)Nc2ccccc2-c2nc3ccccc3s2)cc1[N+](=O)[O-]` [Compound 113, N-(2-Benzothiazol-2-yl-phenyl)-4-methoxy-3-nitro-benzamide], the EC50 was above 25 µM.

Take `Cc1c(C(=O)Nc2ccccc2-c2nc3ccccc3s2)cccc1[N+](=O)[O-]` [Compound 114, N-(2-Benzothiazol-2-yl-phenyl)-2-methyl-3-nitro-benzamide]: the EC50 is above 25 µM.

With `Cc1cc(C(=O)Nc2ccccc2-c2nc3ccccc3s2)ccc1[N+](=O)[O-]` [Compound 115, N-(2-Benzothiazol-2-yl-phenyl)-3-methyl-4-nitro-benzamide], the half-maximal effective concentration (EC50) was above 25 µM.

For `O=C(Nc1ccccc1-c1nc2ccccc2s1)c1ccccc1Br` [Compound 116, N-(2-Benzothiazol-2-yl-phenyl)-2-bromo-benzamide], the 50% effective concentration (EC50) is above 25 µM.

As to `Cc1ccc(C(=O)Nc2cc(-c3nc4ccccc4s3)ccc2C)c(C)c1` [Compound 117, N-(5-Benzothiazol-2-yl-2-methyl-phenyl)-2,4-dimethyl-benzamide], the EC50 is above 25 µM.

Turning to `COc1cccc(OC)c1C(=O)Nc1ccc(Cl)c(-c2nc3ccccc3s2)c1` [Compound 118, N-(3-Benzothiazol-2-yl-4-chloro-phenyl)-2,6-dimethoxy-benzamide], the EC50 is above 25 µM.

For the compound `Cc1cc(C(=O)Nc2ccc(-c3nc4ccccc4s3)c(Cl)c2)ccc1[N+](=O)[O-]` [Compound 119, N-(4-Benzothiazol-2-yl-3-chloro-phenyl)-3-methyl-4-nitro-benzamide], the EC50 is above 25 µM.

As to `O=C(Nc1ccc(-c2nc3ccccc3s2)c(Cl)c1)c1cccc([N+](=O)[O-])c1` [Compound 120, N-(4-Benzothiazol-2-yl-3-chloro-phenyl)-3-nitro-benzamide], the concentration giving a half-maximal response (EC50) is above 25 µM.

Consider `Cc1cc(C)cc(C(=O)Nc2cc(-c3nc4ccccc4s3)ccc2Cl)c1` [Compound 122, N-(5-Benzothiazol-2-yl-2-chloro-phenyl)-3,5-dimethyl-benzamide], for which the EC50 was above 25 µM.

On to `O=C(Nc1ccc(-c2nc3ccccc3s2)c(Cl)c1)c1ccc(F)cc1` [Compound 123, N-(4-Benzothiazol-2-yl-3-chloro-phenyl)-4-fluoro-benzamide], for which the EC50 was above 25 µM.

Regarding `O=C(Nc1ccc(-c2nc3ccccc3s2)c(Cl)c1)c1ccccc1[N+](=O)[O-]` [Compound 124, N-(4-Benzothiazol-2-yl-3-chloro-phenyl)-2-nitro-benzamide], the EC50 is above 25 µM.

The next data set deals with dengue.
Experiment: not given
The note with it: animal models of refs. 14, 16; model not specified; cited from earlier work.
For `NC(=O)c1ncn([C@@H]2O[C@H](CO)[C@@H](O)[C@H]2O)n1` [ribavirin], the adverse effects induced entry is “induced anemia and thrombocytosis”.

Still in this data set, the particulars now being: rhesus monkey model; cited from earlier work.
As to `NC(=O)c1ncn([C@@H]2O[C@H](CO)[C@@H](O)[C@H]2O)n1` [ribavirin], the protection against dengue entry is given as “did not show protection”.

Another data set has as its system all four serotypes of dengue. The data set is described as follows: Yield assays against each of the four serotypes of dengue. To be noted: yield assays at several drug concentrations. It counts as cell-based, dengue virus. How it is done: Initially, the chemical structures of the hit compounds were examined for chemical tractability. […] Hits that passed this medicinal chemistry filter were evaluated for their potency. Compound potency was determined by evaluating inhibitory activity across a broad range of concentrations. Nonlinear regression was used to generate best-fit inhibition curves and to calculate the 50% effective concentration (EC50). The selectivity or specificity of a given compound is typically expressed as a ratio of its cytotoxicity to its biological effect. A cell proliferation assay is used to calculate a 50% cytotoxicity concentration (CC50); the ratio of this value to the EC50 is referred to as the therapeutic index (T.I.=CC50/EC50). Two types of assays have been used to determine cytotoxicity, both of which are standard methods for quantitating the reductase activity produced in metabolically active cells (22). […] Verification that these compounds act against each of the four serotypes of dengue was done with yield assays carried out at several drug concentrations, and the titer determined for each.
Compounds that were active in the primary screen were tested for activity in viral yield assays. […] The EC50 was calculated through ExcelFit. Activities against other serotypes of dengue virus were determined in a similar way.
Take `COc1ccc(C(=O)Nc2ccc(-c3nc4ccc(C)cc4s3)cc2)c(OC)c1` [Compound 3, 2,4-Dimethoxy-N-[4-(6-methyl-benzothiazol-2-yl)-phenyl]-benzamide]: the “activity against all four serotypes of dengue” value is “activity against all four serotypes of dengue”.

A further data set concerns dengue.
Experiment: not given
To be noted: mouse model; cited from earlier work.
In the case of `NC(=O)c1ncn([C@@H]2O[C@H](CO)[C@@H](O)[C@H]2O)n1` [ribavirin], the protection against dengue result is “did not show protection”.
